PubChem BioAssay AID463229 (Broad Institute, 2010)

What follows are molecules tested on INS-1E rat beta cells, no cytokines, CellTiter-Glo ATP, 48 h (assay: cytokine-free beta-cell viability effect – INS-1E rat cells, ATP luminescence, cherry pick, counter-screen for beta-cell apoptosis protection project, dose response (AID 463229)).
For `O=C1N/C(=N/N=C/c2ccccc2O)SC1Cc1ccc(F)cc1` (configuration not stated), the AC50 was 14.6 µM. `COc1ccc(-n2c(-c3ccc(Br)cc3)c[n+]3c2CCc2ccccc2-3)cc1` showed an AC50 of 1.86 µM. In the case of `CC1CCC(C(C)C)C(OC(=O)Cn2c(-c3ccc(Cl)cc3)[n+](C)c3ccccc32)C1` (configuration not stated), the AC50 is reported as 3.83 µM. In the case of `COc1ccc(NC(=O)c2c(Nc3ccccc3)sc(C(=O)c3ccc(F)cc3)c2N)cc1`, the AC50 is reported as 2.91 µM. Molecule `Cc1occc(=O)c1OC(=O)Nc1ccc(Cl)c(Cl)c1` has an AC50 of 7.74 µM. For `c1cnc(N2CCN(Cc3c[nH]c4ccccc34)CC2)nc1`, the AC50 was 4.83 µM. `O=C(N/N=C/c1cc([N+](=O)[O-])ccc1O)c1cc(-c2ccccc2)nc2ccccc12` showed an AC50 of 5.78 µM. For `CC1=CC2/C=C(\C)CCC(O)C(O)/C=C/C(=O)C23C(=O)NC(CC(C)C)C3C1C` (configuration not stated), the AC50 was 7.48 µM. With `Cc1cc(C)cc(OCC(O)CN2CCC(CN3C(=O)c4cccc5cccc(c45)C3=O)CC2)c1` (configuration not stated) the AC50 was 7.97 µM. With `Cc1ccc(N=Nc2ccc(O)c3ncccc23)cc1` the AC50 was 6.58 µM. Molecule `Cc1cc(N/N=C/c2ccc(O)cc2O)nc(-n2nc(C)cc2C)n1` has an AC50 of 6.67 µM. For `O=C(Nc1cccc(C(F)(F)F)c1)Oc1ccc(Cl)c2cccnc12`, the AC50 was 7.64 µM. Work on `O=C(CCCCCCCCCCC(=O)NCc1cccnc1)NCc1cccnc1` yielded an AC50 of under 0.195 µM. With `Oc1cccc2ccc(Nc3ccccn3)nc12` the AC50 was 2.27 µM. For `Cc1cccc(Oc2cc(NC(=O)c3ccccc3)cc([N+](=O)[O-])c2)c1`, the AC50 was 7.84 µM. In the case of `CCCCCCCCCn1ccc(=N)cc1`, the AC50 is reported as 0.553 µM. For `CCn1c(/C=C/c2ccc([N+](=O)[O-])o2)nc2ccccc2c1=O`, the AC50 was 4.08 µM. `CCCCS(=O)(=O)/C=C\C=C/S(=O)(=O)CCCC` gave an AC50 of 5.48 µM. Molecule `CCc1cc(C(=O)NC2CCCc3c2cnn3-c2cccc(C)c2C)n(C)n1` (configuration not stated) has an AC50 of under 0.195 µM. Work on `C/C(=N\NC(=O)c1ccc(Cl)cc1)c1ccccn1` yielded an AC50 of 1.62 µM. `Cc1cc([N+](=O)[O-])c2ccccc2[n+]1[O-]` was tested, and the AC50 was 0.454 µM. Molecule `Oc1[nH]c2ccccc2c1N=NC(=S)N1CCOCC1` has an AC50 of 3.98 µM. In the case of `CCOC(=O)C1CCCN(S(=O)(=O)c2ccc(S(=O)(=O)N(CC)CC)cc2)C1` (configuration not stated), the AC50 is reported as 3.8 µM. In the case of `COc1ccc(NS(=O)(=O)c2ccc(-c3coc(C)n3)cc2)cc1OC`, the AC50 is reported as 4.39 µM. For `CCN(CC)S(=O)(=O)c1ccc(N/N=C/c2cc(OC)ccc2O)nc1`, the AC50 was 4.24 µM. `Oc1ccc2ccccc2c1N=Nc1nccs1` gave an AC50 of 6.54 µM. With `Cc1ccc(NS(=O)(=O)c2cc([N+](=O)[O-])ccc2N/N=C/c2sc(N3CCOCC3)nc2-c2ccccc2)c(C)c1` the AC50 was 11.9 µM. `Cc1cc2nc(NCCCO)n(CC(=O)c3cc(C(C)(C)C)c(O)c(C(C)(C)C)c3)c2cc1C` was tested, and the AC50 was 8.83 µM. Molecule `CCCCC(=O)NC(c1ccc(N(C)C)cc1)c1ccc2cccnc2c1O` (configuration not stated) has an AC50 of 1.6 µM. `COc1ccc(C)cc1NS(=O)(=O)c1ccc(NC(=O)CN(c2cc([N+](=O)[O-])ccc2C)S(C)(=O)=O)cc1` showed an AC50 of 1.11 µM. For `COc1ccc(NS(=O)(=O)c2ccc(N3CCOCC3)c(N)c2)cc1`, the AC50 was 7.12 µM. `Cc1cccc(NC(=O)Nc2cccc(Oc3c(F)c(F)c(F)c(F)c3F)c2)c1` showed an AC50 of 6.96 µM. For `COc1ccc(-c2cn(Cc3ccc(C(=O)c4ccccc4)cc3)nn2)cc1`, the AC50 was 11.6 µM. Work on `COc1ccccc1C(NC(C)=O)c1cc(Cl)c2cccnc2c1O` (configuration not stated) yielded an AC50 of 7.24 µM. `COc1ccc(C2/C=C\CN(C(=O)c3ccc(C)cc3)[C@H](Cc3ccccc3)C(=O)N2Cc2ccc(F)cc2)cc1` (some centres not stated) gave an AC50 of 7.33 µM. In the case of `N#CC(C#N)=NNc1ccc(-n2ccc(C(F)(F)F)n2)cc1`, the AC50 is reported as 7.8 µM. `CCCCCCC[N+](CC)(CC)CCCCc1ccc(Cl)cc1` showed an AC50 of 4.93 µM. For `CCN(CC)c1ccc(/C=N/N(c2ccccc2)c2ccccc2)c(O)c1`, the AC50 was 4.58 µM. Molecule `CCCCC1CCC(C(=O)N(CC(C)C)c2c(N)n(Cc3ccccc3)c(=O)[nH]c2=O)CC1` (configuration not stated) has an AC50 of 6.87 µM. `Cc1ccccc1CS(=O)(=O)c1nnc([C@H](Cc2ccccc2)NC(=O)OC(C)(C)C)o1` was tested, and the AC50 was 13 µM. For `CN(C1=C(NC(=O)c2ccc(Cl)cc2)C(=O)c2ccccc2C1=O)c1ccccc1`, the AC50 was 13 µM. Work on `COc1ccccc1N1CCN(Cc2cc(Br)c(O)c3ncccc23)CC1` yielded an AC50 of 5.72 µM. `CCCCCCCCCCCCCCCC[N+](C)(C)CCN(Cc1ccc(OC)cc1)c1ncccn1` gave an AC50 of 4.23 µM. In the case of `Cc1cc(-c2ccccc2)n(-c2cc(N/N=C/c3ccccc3O)ncn2)n1`, the AC50 is reported as 7.17 µM. `CCN(CC)CCOC(=O)c1ccc(N/C=C(/C#N)c2nc(-c3ccc4c(c3)OCO4)cs2)cc1` was tested, and the AC50 was 14.2 µM. Work on `CCCCCCc1cc2cc(C(=O)Nc3ccccc3)c(=O)oc2cc1O` yielded an AC50 of 3.24 µM. `CCOC(=O)N1CCN(C(=O)CSCC(=O)Nc2nc(-c3ccc(-c4ccccc4)cc3)cs2)CC1` gave an AC50 of 4.49 µM. `COc1ccc(O)c(/C=N/NC(=O)c2ccc(OCc3cccc(Br)c3)cc2)c1` gave an AC50 of 19.8 µM. For `O=[N+]([O-])c1ccc(O)c(/C=N/Nc2nc3ccccc3[nH]2)c1`, the AC50 was 2.01 µM. `COc1cccc(/C=N/NC(=O)c2cc3cc([N+](=O)[O-])ccc3s2)c1O` showed an AC50 of 7.08 µM. In the case of `COc1ccc(OC)c2[nH]c(C(=O)N/N=C/c3ccccc3O)cc12`, the AC50 is reported as 7.58 µM. For `CCCc1cc(=O)n2[nH]cc(-c3ccc(Cl)cc3)c2n1`, the AC50 was 11.9 µM. `CCCOC(=O)c1ccc(-[n+]2c(-c3ccccc3)cc(-c3ccccc3)cc2-c2ccccc2)cc1` gave an AC50 of 2.15 µM. Work on `C(=N\Nc1nncc2ccccc12)/c1ccccn1` yielded an AC50 of 4.47 µM. `COc1ccc(-c2cc(-c3ccccc3)[n+](C)c(-c3ccccc3)c2)cc1` showed an AC50 of 4.28 µM. In the case of `Cc1ccc(-n2c(-c3ccccc3)c[n+]3c2CCC3)cc1`, the AC50 is reported as 3.11 µM. In the case of `Cn1c(/C=C/c2ccc([N+](=O)[O-])o2)nc2ccccc2c1=O`, the AC50 is reported as 3.56 µM. Work on `O=C(N/N=C/c1ccc(O)cc1O)/C(=C/c1ccccc1)CCO` yielded an AC50 of 6.54 µM. `CC(CNC(=O)c1ccc(OC2CCN(Cc3ccccn3)CC2)cc1)Oc1cccnc1` (configuration not stated) showed an AC50 of 7.36 µM. For `CC1=NNC(=O)/C1=C\c1cn(-c2ccccc2)nc1-c1ccc(Cl)cc1`, the AC50 was 10.9 µM. `C/C(=N\NC(=O)c1cc(-c2cccnc2)nc2ccccc12)c1ccccc1O` showed an AC50 of 5.74 µM. For `COc1cc(C(=O)Oc2c(CN3CCOCC3)cc(Cl)c3cccnc23)cc(OC)c1OC`, the AC50 was 13.3 µM. `Cc1ccc(S(=O)(=O)N2CCN(c3ncnc4sccc34)CC2)cc1` showed an AC50 of 8.15 µM. `N#CCSc1nc2ccccc2c2nc3ccccc3n12` was tested, and the AC50 was 10.3 µM. With `CCO[C@H]1OC(C(=O)N2CCN(Cc3ccc4c(c3)OCO4)CC2)=C[C@@H](c2csc3ccccc23)[C@@H]1CCCO` the AC50 was 6.01 µM. `Cc1cc(/C=N/n2cnnc2)c(C)n1-c1ccc(OCc2ccc(Cl)cc2Cl)cc1` showed an AC50 of 1.71 µM. With `COc1cccc(C(=O)Oc2c(Br)cc(Br)cc2/C=N/NC(=O)c2cc(C)[nH]n2)c1` the AC50 was 7.17 µM. Molecule `Oc1ccc(Nc2nc(-c3ccc4ccccc4c3)cs2)cc1` has an AC50 of 7.98 µM. For `CCOC(=O)CS(=O)(=O)c1nc(-c2ccccc2)cc(C(F)(F)F)n1`, the AC50 was 8.1 µM. `CN1/C(=C\C(=O)c2ccco2)C(C)(C)c2ccccc21` showed an AC50 of 7.58 µM. Molecule `COc1cccc(/C=N/NC(=O)C(=O)Nc2ccccc2OC(F)(F)C(F)F)c1O` has an AC50 of 6.44 µM. `CNc1nc2cc([N+](=O)[O-])c([N+](=O)[O-])cc2nc1NC` was tested, and the AC50 was 0.278 µM. `CN(C)S(=O)(=O)c1ccc(Oc2ccc(S(=O)(=O)N(C)C)cc2)cc1` gave an AC50 of 9.29 µM. With `O=C(NCc1cccnc1)c1ccc(NC(=O)c2cccc([N+](=O)[O-])c2)cc1` the AC50 was 0.205 µM. `Cc1c(/C=N/Nc2nc3ccccc3[nH]2)c2ccccc2n1C` showed an AC50 of 6.36 µM. `CC1CCN(Cc2c(C(=O)N/N=C/c3ccccc3O)nnn2-c2nonc2N)CC1` showed an AC50 of 5.67 µM. In the case of `CCCn1c(Nc2nc3ccccc3n2C)nc2ccccc21`, the AC50 is reported as 7.26 µM. `S=C(Nc1ccc(Nc2ccccc2)cc1)Nc1ccccn1` gave an AC50 of 11.5 µM. `O=C(N/N=C/c1cc(Br)ccc1OC(=O)c1ccc(Br)cc1)c1ccncc1` gave an AC50 of 6.01 µM. In the case of `N=c1c2c(n(Cc3cccc(Cl)c3)c3c1CCC3)CCCC2`, the AC50 is reported as 7.28 µM. `COc1ccc(C2/C=C\CN(C(=O)C3CC3)[C@H](Cc3ccccc3)C(=O)N2Cc2ccc(F)cc2)cc1` (some centres not stated) was tested, and the AC50 was 14.5 µM. `COc1ccc(-n2cc(-c3ccccc3)[n+]3c2CCCCC3)cc1` showed an AC50 of 1.94 µM. Molecule `O=C(COc1ccc(Cl)cc1)Nc1ccc(C(=O)NCc2cccnc2)cc1` has an AC50 of 0.236 µM. `CCCCC(=O)NC(c1ccccc1)c1ccc2cccnc2c1O` (configuration not stated) showed an AC50 of 2.24 µM. `CC(C)Oc1ccc(C(CCN)C2CCCCC2)cc1` (configuration not stated) gave an AC50 of 13.3 µM. In the case of `C=C(C)C(=O)N1CC2(CC(c3cccc(NC(=O)COc4ccc(Cl)cc4)c3)=NO2)C[C@@H]1C(N)=O` (some centres not stated), the AC50 is reported as 12.8 µM. In the case of `O=C(CNC(=O)c1ccccc1O)N/N=C/c1cc(Br)ccc1OC(=O)/C=C/c1ccco1`, the AC50 is reported as 10.7 µM. `CCOC(=O)c1cnc(-n2nc(C)cc2C)nc1NNc1cc(C)nc(-c2ccccc2)n1` showed an AC50 of 7.19 µM. `COc1ccc2nc(/C(C#N)=C\c3ccc(Oc4ccc([N+](=O)[O-])cn4)cc3)[nH]c2c1` was tested, and the AC50 was 6.77 µM. Molecule `Cc1ccc(-c2nc(N/N=C/c3cccnc3)c3ccccc3n2)cc1` has an AC50 of 9.02 µM. `N#C/C(=N\Nc1cccc([N+](=O)[O-])c1)C(=O)c1ccc(Br)cc1` was tested, and the AC50 was 7.29 µM. `N#Cc1c(Cl)nsc1NC(=O)c1ccccc1` showed an AC50 of 8.12 µM. With `O=C(Nc1nc(-c2ccccn2)cs1)c1cccc(-n2cnnn2)c1` the AC50 was 7.05 µM. For `CC[C@@H](C(=O)[C@@H](C)[C@@H](O)[C@H](C)CCc1ccc(C)c(O)c1C(=O)O)[C@H]1O[C@](CC)([C@H]2CC[C@](O)(CC)[C@H](C)O2)C[C@@H]1C`, the AC50 was 2.49 µM. In the case of `COc1ccc(-n2c(-c3ccc(Cl)cc3)c[n+]3c2CCCCC3)cc1`, the AC50 is reported as 1.6 µM. For `COC(=O)[C@@H](Cc1ccccc1)N(Cc1ccccc1)S(=O)(=O)N(Cc1ccccc1)[C@H](Cc1ccccc1)C(=O)OC`, the AC50 was 4.27 µM. With `CCCCCCCCCCCCCCCC[N+](C)(C)CC` the AC50 was 6.57 µM. In the case of `CCCCCCCCCCn1c2c(c(=N)c3c1CCC3)CCC2`, the AC50 is reported as under 0.195 µM. With `c1ccc(CN2CCN(Cc3c[nH]c4ccccc34)CC2)cc1` the AC50 was 7.83 µM. `CCCCCCCCCCOC(=O)C[N+](C)(C)C/C=C(/C)Cl` gave an AC50 of 16.7 µM. `O=[N+]([O-])c1ccc(O)c(/C=N/NC(=S)Nc2ccc(Cl)cc2Cl)c1` was tested, and the AC50 was 17.9 µM. With `COc1ccccc1C(=O)Nc1nc(-c2ccc(S(=O)(=O)N3CCOCC3)cc2)cs1` the AC50 was 5.29 µM. With `CC(C)(C)Nc1nc(-c2ccccn2)nc2ccccc12` the AC50 was 6.87 µM. For `COc1ccccc1-[n+]1c(C)cc(/C=C2\Sc3ccccc3N2C)cc1C`, the AC50 was under 0.195 µM. `CCN1/C(=C/c2ccc3cc(C)ccc3[n+]2CC)Sc2ccc3sccc3c21` showed an AC50 of 0.316 µM. `COc1ccc(CCNC(=O)c2cc3c(=O)n4cccc(C)c4nc3n(Cc3ccco3)c2=N)cc1OC` gave an AC50 of 9.18 µM. `O=C(NNC(=S)Nc1ccc(Cl)c(Cl)c1)c1ccccn1` was tested, and the AC50 was 4.35 µM.
